Reference: patent US20240216375A1, “USE OF S[…] AND/OR ALPHA 1-ADRENERGIC RECEPTOR INHIBITOR IN PREPARING MEDICINE FOR TREATING DRY EYES” (Eye Institute of Shandong First Medical University …, priority 2022, published 2024)

Assays:
Type in all cases: in vivo
[1] = system: mice treated with scopolamine (dry eye model); test: Expression levels of inflammatory factors of the lacrimal gland by qPCR in scopolamine-induced dry eye model mice; conditions: intraperitoneal injection 100 mg/kg, 7th day of treatment
Description: (§1) Female C57BL/6 mice were selected for the experiment and placed in a perforated cage with a constant fan flow and a humidity <20%. The modeled mice with dry eye were induced by subcutaneous injection of scopolamine (0.5 mg/0.2 ml, 3 times a day) for 7 consecutive days (refer to the following literature: Wu Y, Bu J, Yang Y, et al. Therapeutic effect of MK2 inhibitor on experimental murine dry eye. Invest Ophthalmol Vis Sci. 2017; 58:4898-4907), the mice not treated and fed under a normal condition were used as a control, and the experimental mice had no corneal defects and neovascularization or conjunctival damage.
After 7 days of modeling, the lacrimal glands and the corneas of the mice were taken to extract mRNA. Expression levels of inflammatory factors TNFα, TGFβ1, and IL-1β were detected by qPCR. The result was shown in FIG. 3 (expression levels of inflammatory factors of the lacrimal glands (left) and the corneas (right) 7 days after modeling of mice treated with scopolamine).
After 7 days of the treatment, staining by sodium fluorescein was used to observe damage of a corneal epithelial barrier function. The lacrimal glands of the mice were taken for qPCR detection.
On the 7th day of the treatment, staining by sodium fluorescein was used to observe damage of a corneal epithelial barrier function. The lacrimal glands of the mice were taken for qPCR detection.

mice with diabetes = test: Tear secretion in mice with diabetes (STZ type 1 diabetes model, diabetes-associated dry eye); conditions: intraperitoneal injection 100 mg/kg once a day for 4 days, observed 5 and 7 days, vs normal saline
Description: A phenol red cotton thread was used to detect the tear production of mice. One end of the phenol red cotton thread was placed at an inner ⅓ of the conjunctival sac of the lower eyelid, after 20 s, the phenol red cotton thread was taken out, and the length of the cotton thread wetted with tears was measured. The result was shown in FIG. 1 (tear secretion after modeling of mice treated with scopolamine).
Male C57BL/6 mice were selected, a type 1 diabetes model was established by intraperitoneal injection of streptozotocin (STZ) (the establishment method refers to the prior art: Lingling, Yang, Guohu, Di, Xia, & Qi, et al. Substance p promotes diabetic corneal epithelial wound healing through molecular mechanisms mediated via the neurokinin-1 receptor. Diabetes. 2014; 63: 4262-4274.), and the mice with blood glucose value greater than 300 mg/dL were screened for experiments after 1 month. The mice not treated and fed under a normal condition were used as a control, and the experimental mice had no corneal defects and neovascularization or conjunctival damage. The result was shown in FIG. 11 (tear secretion and ocular surface inflammation after modeling of mice with diabetes, tear secretion (left) and ocular surface inflammation (right)). […]

[2] = system: mice treated with scopolamine (dry eye model); test: Corneal staining by fluorescein sodium in scopolamine-induced dry eye model mice; conditions: intraperitoneal injection 100 mg/kg, 7th day of treatment
Description: as §1
Staining by fluorescein sodium was used to observe damage of a corneal epithelial barrier function, observation was performed with a slit lamp, and photographing was performed. The result was shown in FIG. 2 (corneal staining by fluorescein sodium 7 days after modeling of mice treated with scopolamine). Compared with the mice in the control group, the mice in the scopolamine group were positive in staining by fluorescein sodium in scopolamine 7 days after modeling.
After 7 days of the treatment, staining by sodium fluorescein was used to observe damage of a corneal epithelial barrier function. The lacrimal glands of the mice were taken for qPCR detection. […]

[3] = system: mice treated with scopolamine (dry eye model); test: Tear secretion (phenol red cotton thread) in scopolamine-induced dry eye model mice; conditions: intraperitoneal injection 100 mg/kg once a day from 3rd day after modeling for 4 days, observed 5 and 7 days, vs normal saline

Q: For `NCCc1cc(O)c(O)cc1O` [6-hydroxydopamine], which “expression levels of inflammatory factors TNFα and TGFβ1 of the lacrimal gland” value [1] is on record?
A: The value was “decrease expression levels of inflammatory factors TNFα and TGFβ1”.

Q: And the tear secretion (mice with diabetes)?
A: Its tear secretion is “significantly increase the tear secretion”.

Q: What about the “staining of ocular surface by fluorescein sodium” value [2] of the same molecule?
A: Its value is “reduce staining of an ocular surface by fluorescein sodium”.

Q: And the tear secretion [3]?
A: Its tear secretion is “significantly increase the tear secretion”.
